Publication PMC1242219, “Anthracyclines, proteasome activity and multi-drug-resistance” (BMC Cancer, 2005)
Like-named read-outs stand apart in the source and are kept apart here. Peptide text beside a SMILES is read from it. * marks the point of attachment. Cbz = O=C(OCc1ccccc1)*

Tests used:
26S proteasome = molecular target: T1, 26S proteasome (Homo sapiens, UniProt P28074); test: Chymotrypsin-like 26S proteasome function in crude cell extracts (SucLLVY-AMC fluorogenic peptide assay); assay type: biochemical; conditions: for Effect on 26S proteasome function: data not shown; for Chymotryptic 26S Proteasome Activity in Lysates from ECV 304 Cells: activity relative to 0 μM = 1, mean ± SEM
T1 construct: endogenous in cells; host or cells: ECV304 cells, crude extract
T1 sequence (P28074 60-263): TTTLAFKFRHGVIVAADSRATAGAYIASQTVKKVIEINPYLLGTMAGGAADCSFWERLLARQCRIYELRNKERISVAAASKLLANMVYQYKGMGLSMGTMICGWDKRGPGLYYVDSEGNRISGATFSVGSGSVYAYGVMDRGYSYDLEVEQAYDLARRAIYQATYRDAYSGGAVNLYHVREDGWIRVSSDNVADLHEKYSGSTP
Experimental: (§1) 20S and 26S proteasome function was measured as described previously (20). Briefly, cells were washed with PBS, then with buffer I (50 mM Tris, pH 7.4, 2 mM DTT, 5 mM MgCl2, 2 mM ATP), and pelleted by centrifugation. Glass beads and homogenization buffer (50 mM Tris, pH 7.4, 1 mM DTT, 5 mM MgCl2, 2 mM ATP, 250 mM sucrose) were added and vortexed for 1 minute. Beads and cell debris were removed by centrifugation at 1,000 × g for 5 minutes and 10,000 × g for 20 minutes. Protein concentration was determined by the BCA protocol (Pierce). One hundred μg protein of each sample was diluted with buffer I to a final volume of 1000 μl and the fluorogenic proteasome substrate SucLLVY-7-amido-4-methylcoumarin (chymotrypsin-like, Sigma) was added in a final concentration of 80 μM in 1% DMSO. To access 20S function, buffer I was replaced by an ATP-free buffer containing SDS (20 mM HEPES, pH 7.8; 0.5 mM EDTA, 0.03% SDS). Cleavage activity was monitored continuously by detection of free 7-amido-4-methylcoumarin using a fluorescence plate reader (Gemini, Molecular Devices) at 380/460 nm and 37°C. As controls for drug studies, 7-amido-4-methylcoumarin (AMC, 2 μM) was incubated with drugs in buffer I without cell extracts and measurements of proteasome function were corrected when necessary.

20S proteasome = molecular target: T2, 20S proteasome (Homo sapiens, UniProt P28074); test: Chymotrypsin-like 20S proteasome function in crude cell extracts (ATP-free buffer with SDS, SucLLVY-AMC); assay type: biochemical
T2 construct: Chymotryptic 20S Proteasome Activity in Lysates from ECV 304 Cells; endogenous in cells; host or cells: ECV304 cells, crude extract
T2 sequence (P28074 60-263): T1 sequence (P28074 60-263)
Experimental: as §1

[1] = tested on: proteasome function (Ub-GFP accumulation) in ECV304/10 cells; test: Proteasome function in living ECV304/10 cells stably transfected with Ub-R-GFP fusion protein (fluorescence microscopy); assay type: cell-based, human; conditions: 100 μM
Experimental: ECV304 cells were plated at a density of 250.000 cells/well into six-well plates twelve hours before transfection. Cells were transfected with 5 μg of a plasmid (pEGFP-N1, Clontech) coding for an ubiquitin (Ub)-R-GFP fusion protein under control of a CMV promoter (a kind gift from Dr. M. Masucci, Karolinska Institute, Sweden) using the Superfect transfection kit (Qiagen) and following the manufacturer's instructions. Transfected cells were maintained in DMEM (10 % FSC, 1 % penicillin/streptomycin) supplemented with 500 μg/ml G418 (Sigma) and clones were obtained.

ECV304 cells = test: Drug accumulation assay: doxorubicin in cytoplasm and nuclear fraction of ECV304 cells; assay type: cell-based, human; conditions: MG-132 25 μM
Experimental: Stock solutions of all cytotoxic drugs were obtained from the hospital pharmacy of the University Clinic Freiburg. […] Control cells were subjected to DMSO treatment alone (0.5 %).
Growth medium on cells was replaced by PBS for 40 minutes at 37°C. This was replaced by fresh PBS containing daunorubicin or doxorubicin and MG-132 or anthracyclines alone. […] After drug treatment, the cells were washed twice with PBS, re-suspended in either 4 ml lysis buffer (0.3 M sucrose, 0.05 mM EGTA pH 8.0, 60 mM KCl, 15 mM NaCl, 15 mM HEPES pH 7.5, 150 μM spermine, 50 μM spermidine) containing 20 μl triton X-100 for nuclear isolation or 400 μl of 50% ethanol in 1 M HCl (v/v) for whole cell lysis. For the latter, cells were vortexed and diluted with water to a final volume of 1.4 ml. The cells in lysis buffer were mixed and left on ice for 15 minutes before centrifuging. The nuclei (pellet) were then vortexed with 400 μl HCl/isopropanol.

KB 8.5 cells = test: Apoptosis / morphological toxicity of KB 8.5 cells treated with MG-132; assay type: cell-based, human
Text: The human epitheloid carcinoma cell line KB 8-5 is a well-characterized tumor cell line that over-expresses mdr-1 with associated MDR.

P-glycoprotein = molecular target: T3, P-glycoprotein (Homo sapiens, UniProt P08183); test: Drug accumulation assay: daunorubicin fluorescence in P-gp overexpressing KB 8-5 cells; assay type: cell-based; conditions: different doses of MG-132 (0, 6.25, 12.5, 25, 50 μM), daunorubicin 10 μM, 45 minutes
T3 construct: accumulation of daunorubicin in KB 8-5 cells that overexpress P-glycoprotein; endogenous in cells; host or cells: KB 8.5 (KB 8-5) cells, maintained under colchicine selection
T3 sequence (P08183 whole entry): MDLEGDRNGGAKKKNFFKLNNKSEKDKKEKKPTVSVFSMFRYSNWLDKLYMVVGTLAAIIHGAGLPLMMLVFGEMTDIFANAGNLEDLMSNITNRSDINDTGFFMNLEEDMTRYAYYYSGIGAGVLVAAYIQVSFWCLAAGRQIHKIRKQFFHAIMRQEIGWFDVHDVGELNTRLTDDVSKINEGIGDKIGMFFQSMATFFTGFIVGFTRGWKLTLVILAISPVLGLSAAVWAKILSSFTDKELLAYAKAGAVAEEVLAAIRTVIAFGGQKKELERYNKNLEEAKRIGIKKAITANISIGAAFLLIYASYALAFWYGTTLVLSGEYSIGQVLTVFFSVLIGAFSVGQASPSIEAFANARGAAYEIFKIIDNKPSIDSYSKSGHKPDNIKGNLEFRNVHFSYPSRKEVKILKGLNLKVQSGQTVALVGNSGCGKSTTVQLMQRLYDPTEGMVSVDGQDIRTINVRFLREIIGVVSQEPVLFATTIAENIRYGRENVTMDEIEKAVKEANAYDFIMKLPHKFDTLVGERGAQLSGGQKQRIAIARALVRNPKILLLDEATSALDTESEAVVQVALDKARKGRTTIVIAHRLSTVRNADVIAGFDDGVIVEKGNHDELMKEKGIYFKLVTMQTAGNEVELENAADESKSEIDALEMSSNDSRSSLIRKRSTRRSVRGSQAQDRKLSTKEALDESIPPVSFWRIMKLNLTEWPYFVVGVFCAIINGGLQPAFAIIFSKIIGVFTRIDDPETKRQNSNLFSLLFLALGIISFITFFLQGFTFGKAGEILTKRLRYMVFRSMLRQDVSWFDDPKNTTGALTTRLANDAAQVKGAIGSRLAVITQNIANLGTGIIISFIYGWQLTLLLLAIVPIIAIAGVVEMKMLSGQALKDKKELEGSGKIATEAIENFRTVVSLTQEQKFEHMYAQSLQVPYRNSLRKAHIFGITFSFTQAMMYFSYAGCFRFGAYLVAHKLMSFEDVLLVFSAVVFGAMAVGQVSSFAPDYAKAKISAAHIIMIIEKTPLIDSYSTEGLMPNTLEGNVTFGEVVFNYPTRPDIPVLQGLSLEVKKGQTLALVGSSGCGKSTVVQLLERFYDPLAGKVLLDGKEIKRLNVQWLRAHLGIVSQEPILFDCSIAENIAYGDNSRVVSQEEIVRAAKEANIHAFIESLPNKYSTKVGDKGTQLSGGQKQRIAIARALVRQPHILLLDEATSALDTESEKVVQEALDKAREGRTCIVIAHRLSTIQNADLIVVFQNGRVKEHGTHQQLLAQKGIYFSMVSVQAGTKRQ
Experimental: Every 21 days P-gp-positive KB 8.5 cells were selected by addition of colchicine (10 ng/ml, Sigma). 24 hours before drug treatment cells were plated into 6-well plates (Costar) at a density of 10^6 cells/well.
Growth medium on cells was replaced by PBS for 40 minutes at 37°C. […] After drug treatment, the cells were washed twice with PBS, re-suspended in either 4 ml lysis buffer (0.3 M sucrose, 0.05 mM EGTA pH 8.0, 60 mM KCl, 15 mM NaCl, 15 mM HEPES pH 7.5, 150 μM spermine, 50 μM spermidine) containing 20 μl triton X-100 for nuclear isolation or 400 μl of 50% ethanol in 1 M HCl (v/v) for whole cell lysis. For the latter, cells were vortexed and diluted with water to a final volume of 1.4 ml. The cells in lysis buffer were mixed and left on ice for 15 minutes before centrifuging. The nuclei (pellet) were then vortexed with 400 μl HCl/isopropanol.

[2] = 6.25 μM, activity relative to 0 μM = 1, mean ± SEM
[3] = 25 μM, activity relative to 0 μM = 1, mean ± SEM
[4] = 50 μM, activity relative to 0 μM = 1, mean ± SEM
[5] = 100 μM, activity relative to 0 μM = 1, mean ± SEM
[6] = crude extracts of ECV304 cells, 0 – 100 μM drug, read-out: IC50, inhibition of 26S proteasome function

CO[C@@]12[C@H](COC(N)=O)C3=C(C(=O)C(C)=C(N)C3=O)N1C[C@@H]1N[C@@H]12 [mitomycin C]
Effect on 26S proteasome function (26S proteasome; crude extracts of ECV304 cells): no measurable effect

COc1cccc2c1C(=O)c1c(O)c3c(c(O)c1C2=O)C[C@@](O)(C(=O)CO)C[C@@H]3O[C@H]1C[C@H](N)[C@@H](O)[C@H](C)O1 [epirubicin]
IC50 (20S proteasome): 12.5 µM
IC50 (26S proteasome): 29.2 µM

CC(=O)[C@]1(O)Cc2c(O)c3c(c(O)c2[C@@H](O[C@H]2C[C@H](N)[C@H](O)[C@H](C)O2)C1)C(=O)c1ccccc1C3=O [idarubicin]
Chymotryptic 20S Proteasome Activity in Lysates from ECV 304 Cells (20S proteasome; [2]): 0.67 ± 0.07
Chymotryptic 20S Proteasome Activity in Lysates from ECV 304 Cells (20S proteasome; 12.5 μM, activity relative to 0 μM = 1, mean ± SEM): 0.67 ± 0.08
Chymotryptic 20S Proteasome Activity in Lysates from ECV 304 Cells (20S proteasome; [3]): 0.69 ± 0.05
Chymotryptic 20S Proteasome Activity in Lysates from ECV 304 Cells (20S proteasome; [4]): 0.67 ± 0.05
Chymotryptic 20S Proteasome Activity in Lysates from ECV 304 Cells (20S proteasome; [5]): 0.49 ± 0.11
IC50 (20S proteasome; crude extracts of ECV304 cells): 92 µM
Chymotryptic 26S Proteasome Activity in Lysates from ECV 304 Cells (26S proteasome; 6.25 μM): 0.97 ± 0.03 n.s.
Chymotryptic 26S Proteasome Activity in Lysates from ECV 304 Cells (26S proteasome; 12.5 μM): 0.96 ± 0.02 n.s.
Chymotryptic 26S Proteasome Activity in Lysates from ECV 304 Cells (26S proteasome; 25 μM): 0.79 ± 0.12 n.s.
Chymotryptic 26S Proteasome Activity in Lysates from ECV 304 Cells (26S proteasome; 50 μM): 0.28 ± 0.09
Chymotryptic 26S Proteasome Activity in Lysates from ECV 304 Cells (26S proteasome; 100 μM): 0.1 ± 0.06
IC50 (26S proteasome; [6]): 38.6 µM

COc1cccc2c1C(=O)c1c(O)c3c(c(O)c1C2=O)C[C@@](O)(C(C)=O)C[C@@H]3O[C@H]1C[C@H](N)[C@H](O)[C@H](C)O1 [daunorubicin]
GFP accumulation indicating proteasome inhibition in living cells ([1]; ECV304 Ub-GFP cells, 16 h (Figure 2 legend)): accumulation of GFP throughout the cytoplasm
Chymotryptic 20S Proteasome Activity in Lysates from ECV 304 Cells (20S proteasome): 0.64 ± 0.07 n.s.
Chymotryptic 20S Proteasome Activity in Lysates from ECV 304 Cells (20S proteasome; [2]): 0.62 ± 0.19 n.s.
Chymotryptic 20S Proteasome Activity in Lysates from ECV 304 Cells (20S proteasome; [3]): 0.81 ± 0.05 n.s.
Chymotryptic 20S Proteasome Activity in Lysates from ECV 304 Cells (20S proteasome; [4]): 0.95 ± 0.04 n.s.
Chymotryptic 20S Proteasome Activity in Lysates from ECV 304 Cells (20S proteasome; [5]): 1.05 ± 0.1 n.s.
Inhibition of 20S proteasome function (20S proteasome; crude extracts of ECV304 cells, up to 100 μM): not
Chymotryptic 26S Proteasome Activity in Lysates from ECV 304 Cells (26S proteasome; 6.25 μM): 0.85 ± 0.05
Chymotryptic 26S Proteasome Activity in Lysates from ECV 304 Cells (26S proteasome; 12.5 μM): 0.53 ± 0.11
Chymotryptic 26S Proteasome Activity in Lysates from ECV 304 Cells (26S proteasome; 25 μM): 0.22 ± 0.09
Chymotryptic 26S Proteasome Activity in Lysates from ECV 304 Cells (26S proteasome; 50 μM): 0.12 ± 0.06
Chymotryptic 26S Proteasome Activity in Lysates from ECV 304 Cells (26S proteasome; 100 μM): 0.11 ± 0.06
IC50 (26S proteasome; [6]): 13.7 µM

CC[C@@]1(O)C(=O)OCc2c1cc1n(c2=O)Cc2cc3c(CN(C)C)c(O)ccc3nc2-1 [Topotecan, topotecan]
Effect on 26S proteasome function (26S proteasome; crude extracts of ECV304 cells): no measurable effect

Nc1ccn([C@@H]2O[C@H](CO)[C@@H](O)C2(F)F)c(=O)n1 [gemcitabine]
Effect on 26S proteasome function (26S proteasome; crude extracts of ECV304 cells): no measurable effect

COc1cccc2c1C(=O)c1c(O)c3c(c(O)c1C2=O)C[C@@](O)(C(=O)CO)C[C@@H]3O[C@H]1C[C@H](N)[C@H](O)[C@H](C)O1 [doxorubicin]
GFP accumulation indicating inhibition of proteasome function in living cells ([1]; ECV304/10 cells, 12 hours): GFP accumulated throughout the cytoplasm
IC50 (20S proteasome): 5.8 µM
IC50 (26S proteasome): 65.5 µM

CC(C)C[C@@H](C=O)NC(=O)[C@H](CC(C)C)NC(=O)[C@H](CC(C)C)NC(=O)OCc1ccccc1 [MG-132] (Cbz-Leu-Leu-Leu-aldehyde)
Uptake of doxorubicin in the cytoplasm and in the nuclear fraction (ECV304 cells): increased uptake of doxorubicin
Morphological signs of toxicity (KB 8.5 cells; KB 8-5 cells, 50 μM, 45 minutes of incubation): no morphological signs of toxicity
Induction of apoptosis (KB 8.5 cells; KB 8.5 cells, 3.125 to 50 μM, within 24 hours, preliminary experiments): induced apoptosis
Accumulation of daunorubicin in KB 8-5 cells (P-glycoprotein): increased, dose-dependent accumulation of daunorubicin
